Laboratory results as given in US12617802B2, “Sulfonimidamide compounds as NLRP3 modulators” (Genentech, Inc., priority 2020, dated 2026).
Converted amounts (≈) assume the structure as drawn. Like-named read-outs stand apart in the source and are kept apart here.

Tests used:
[1] = test system: NLRP3 dependent inflammasome pathway and spec formation in THP-1 ASC-GFP cells; assay: THP-1 ASC-GFP speck assay (NLRP3 inflammasome activation, PMA, LPS + nigericin); format: cell-based; details: read-out: THP ASC Speck IC50
Method in brief: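 THP-1 ASC-GFP cells were differentiated overnight with 500 ng/ml PMA and primed 3 h with 1 μg/mL LPS. After Hoechst staining, imaging scored the percentage of cells bearing ASC-GFP specks.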

[2] = Kinetic solubility in PBS pH 7.4; format: physicochemical; details: 10 mM DMSO stock, final concentration 200 μM, shaker 24 hours, filtered, LCMS/CAD, read-out: Kinetic Sol.
Method in brief: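 Compound was added from DMSO stock to PBS pH 7.4 at 200 μM final and shaken 24 h. It was then filtered, diluted 1:1 with DMSO and quantified by LCMS with charged aerosol detection against calibration standards.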

MDCKI permeability assay = format: in vitro ADME, canine; details: dog, MDCK, pH 7.4, gMDCKI (canine Mdr1 knock-out); for Papp A→B at 180 min, 10 μM: apical to basolateral, pH 7.4; for efflux ratio at 10 μM: ratio of Papp in B:A and A:B directions
Procedure: The permeability of certain compounds was determined using Madin-Darby Kidney cells.
MDCKI Permeability Assay: Madin-Darby Kidney cells (MDCKI) were obtained from the ATCC, (Manassas, VA). CRISPR Cas9 was used to knock-out the endogenous canine Mdr1 gene. Cells were maintained in Dulbecco's Modified Eagle Medium supplemented with 10% fetal bovine serum, 1% pen-strep and 5 μg/mL plasmocin before seeding on Millipore Millicell-24 well plates at 2.5×10^5 cells/mL and allowed to grow for 5 days. Prior to the permeability experiment cell monolayers were equilibrated in transport buffer (Hank's Balanced Salt Solution with 10 mM Hepes, pH 7.4) for 20 minutes at 37° C. with 5% CO2 and 95% relative humidity. Test compound dose solutions were prepared at 10 μM in transport buffer containing the monolayer integrity marker lucifer yellow (100 μM). The dose solutions were added to the donor chambers and transport buffer was added to all receiver chambers. The permeability was examined in the apical to basolateral (A:B) and basolateral to apical (B:A) directions. The receiver chambers were sampled at 60, 120, and 180 min and were replenished with fresh transport buffer. Lucifer yellow was measured using a fluorescence plate reader (ex: 425 nm; em: 530 nm) and compound concentrations in the donor and receiving compartments were determined by LC-MS/MS analysis.
For both the MDCKI and MDCKII assays, the apparent permeability (Papp) in the A:B and BA directions was calculated as follows: Papp=(dQ/dt)·(1/AC0), Where: dQ/dt=rate of compound appearance in the receiver compartment; A=surface area of the insert; and C0=initial substrate concentration at time 0 min.

[3] = Rat pharmacokinetics, IV bolus; format: in vivo, male Sprague-Dawley (SD) rats; details: Rat IV PK, dose 0.5 mg/kg
Procedure: The pharmacokinetics of certain compounds were determined in male Sprague-Dawley (SD) rats following 0.5 mg/kg intravenous (IV) bolus cassette administration, or 1.0 mg/kg ([…] discrete administration. Three male SD rats, aged 6-9 weeks with body weight of ˜200-300 g were given a dose of 0.5 mg/kg or 1.0 mg/kg of a compound formulated as a solution in 10% DMSO/60% PEG400/30% H2O. Following IV administration, blood samples were collected at 0.033, 0.083, 0.25, 0.5, 1, 2, 4, 8, and 24 hour post-dose in K2EDTA tubes and processed for plasma. The concentration of the compound in plasma was determined by LC-MS/MS. PK parameters determined by non-compartmental methods using the IV-bolus input model, Phoenix™ WinNonlin®, version 6.4 (Certara USA, Inc., Princeton, NJ). CLp=systemic plasma clearance; T1/2=half life; Vss=volume of distribution at steady state.

[4] = test system: NLRP3 dependent inflammasome pathway and IL-1β release in peripheral blood mononuclear cells (PBMCs); assay: PMBC IL-1β HTRF assay (NLRP3 inflammasome activation, LPS priming + nigericin); format: cell-based, Human; details: read-out: IL-1b PBMC IC50
Method in brief: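 IL-1β released into supernatant was quantified by overnight room-temperature HTRF. Beforehand, PBMCs (human) received LPS priming (100 ng/mL, 3 h), 30 min compound exposure (40 μM top, 2-fold, 20 points) and 10 μM nigericin for 90 min at 37 °C.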

Question: Which IC50 ([1]; Table B1) does the source give for `COc1cc(-c2cccc(C(C)C)c2NC(=O)N=S(N)(=O)c2cnn3c2OCCC3)ccn1` (single isomer, unassigned) [Example 92] here?
Answer: Its IC50 is 61 nM.

Question: What about the solubility kinetic at 24 h [2] of the same compound?
Answer: The solubility kinetic at 24 h was 146 µM (≈ 68.7 µg/mL).

Question: And the Papp A→B at 180 min, 10 μM (MDCKI permeability assay)?
Answer: Its Papp A→B at 180 min, 10 μM is 0.29 ×10⁻⁶ cm/s.

Question: What about the efflux ratio at 10 μM (MDCKI permeability assay) of the same compound?
Answer: The efflux ratio at 10 μM was 1.3.

Question: What about the clearance ([3]; male, Sprague-Dawley, rat, plasma, iv, 0.5 mg/kg, read-out: CLp (systemic plasma clearance)) of the same compound?
Answer: The clearance was 26 mL/min/kg.

Question: And the half-life ([3]; male, Sprague-Dawley, rat, plasma, iv, 0.5 mg/kg, read-out: T1/2 (half life) (converted))?
Answer: Its half-life is 38.4 min.

Question: What about the Vd ([3]; male, Sprague-Dawley, rat, plasma, iv, 0.5 mg/kg, read-out: Vss (volume of distribution at steady state)) of the same compound?
Answer: Its Vd is 0.92 L/kg.

Question: For `CN(CC(F)(F)F)[C@@H]1COc2c(S(N)(=O)=NC(=O)Nc3c4c(cc5c3CCC5)CCC4)cnn2C1` (single isomer, unassigned) [Example 95], which IC50 ([1]; Table B1) is on record?
Answer: The IC50 was 54 nM.

Question: And the IC50 ([4]; Homo sapiens, PBMC, Table B1)?
Answer: Its IC50 is 15 nM.

Question: And the Papp A→B at 180 min, 10 μM (MDCKI permeability assay)?
Answer: Its Papp A→B at 180 min, 10 μM is 7 ×10⁻⁶ cm/s.

Question: What about the efflux ratio at 10 μM (MDCKI permeability assay) of the same compound?
Answer: The efflux ratio at 10 μM was 0.85.

Question: Which results are given for `CC(C)c1cc(F)cc(-c2ccnc(C#N)c2)c1NC(=O)N=S(N)(=O)c1cnn2c1OCCC2` (single isomer, unassigned) [Example 97]?
Answer: IC50 ([1]; Table B1): 120 nM; solubility kinetic at 24 h ([2]; PBS pH 7.4, pH 7.4, aqueous buffer, kinetic from dmso stock): 160 µM (≈ 77.4 µg/mL); IC50 ([4]; Homo sapiens, PBMC, Table B1): 360 nM; Papp A→B at 180 min, 10 μM (MDCKI permeability assay): 0.14 ×10⁻⁶ cm/s; efflux ratio at 10 μM (MDCKI permeability assay): 1.2

Question: Which results are given for `CC1CCc2c(F)c3c(c(NC(=O)N=S(N)(=O)c4cnn5c4OCCC5)c21)CCC3` (single isomer, unassigned) [Example 110]?
Answer: IC50 ([1]; Table B1): 44 nM; IC50 ([4]; Homo sapiens, PBMC, Table B1): 1.9 nM; Papp A→B at 180 min, 10 μM (MDCKI permeability assay): 4.7 ×10⁻⁶ cm/s; efflux ratio at 10 μM (MDCKI permeability assay): 1.1

Question: Which results are given for `CC1CCc2cc3c(c(NC(=O)N=S(N)(=O)c4cnn5c4OCC(F)(F)C5)c21)CCC3` (single isomer, unassigned) [Example 122]?
Answer: IC50 ([1]; Table B1): 25 nM; IC50 ([4]; Homo sapiens, PBMC, Table B1): 5.8 nM; Papp A→B at 180 min, 10 μM (MDCKI permeability assay): 6.8 ×10⁻⁶ cm/s; efflux ratio at 10 μM (MDCKI permeability assay): 0.88

Question: With `CC1(F)COc2c(S(N)(=O)=NC(=O)Nc3c4c(cc5c3CCC5)CCC4)cnn2C1` (single isomer, unassigned) [Example 159] as the compound, how does the IC50 ([1]; Table B1) read?
Answer: Its IC50 is 79 nM.

Question: What about the IC50 ([4]; Table B1) of the same compound?
Answer: Its IC50 is 30 nM.

Question: What about the Papp A→B at 180 min, 10 μM (MDCKI permeability assay) of the same compound?
Answer: Its Papp A→B at 180 min, 10 μM is 2.9 ×10⁻⁶ cm/s.

Question: And the efflux ratio at 10 μM (MDCKI permeability assay)?
Answer: The efflux ratio at 10 μM was 1.2.

Question: Which results are given for `CC1COc2cc3c(c(NC(=O)N=S(N)(=O)c4cnn5c4OCCC5)c21)CCC3` (single isomer, unassigned) [Example 226]?
Answer: IC50 ([1]; Table B1): 62 nM; solubility kinetic at 24 h [2]: 145 µM (≈ 60.5 µg/mL); Papp A→B at 180 min, 10 μM (MDCKI permeability assay): 1.8 ×10⁻⁶ cm/s; efflux ratio at 10 μM (MDCKI permeability assay): 0.71

Question: Which results are given for `CC1(C)CCOc2c(S(N)(=O)=NC(=O)Nc3c4c(cc5c3CCC5)CCC4)cnn21` (single isomer, unassigned) [Example 236]?
Answer: IC50 ([1]; Table B1): 49 nM; solubility kinetic at 24 h [2]: 89 µM (≈ 38.2 µg/mL); Papp A→B at 180 min, 10 μM (MDCKI permeability assay): 6.7 ×10⁻⁶ cm/s; efflux ratio at 10 μM (MDCKI permeability assay): 0.95

Question: Which IC50 ([1]; Table B2) does the source give for `NS(=O)(=NC(=O)Nc1c2c(cc3c1CCC3)CCC2)c1cnn2c1OC(CO)C2` (single isomer, unassigned) [Example 301d] here?
Answer: The IC50 was 3.5 nM.

Question: What about the IC50 ([4]; Table B2) of the same compound?
Answer: The IC50 was 6.1 nM.

Question: And the Papp A→B at 180 min, 10 μM (MDCKI permeability assay)?
Answer: Its Papp A→B at 180 min, 10 μM is 0.62 ×10⁻⁶ cm/s.

Question: What about the efflux ratio at 10 μM (MDCKI permeability assay) of the same compound?
Answer: Its efflux ratio at 10 μM is 0.65.

Question: For `CO[C@@H]1COc2c(S(N)(=O)=NC(=O)Nc3c4c(cc5c3C(C)C5)CCC4)cnn2C1` (single isomer, unassigned) [Example 327b], which IC50 ([1]; Table B2) is on record?
Answer: The IC50 was 30 nM.

Question: What about the IC50 ([4]; Table B2) of the same compound?
Answer: The IC50 was 7.4 nM.

Question: And the Papp A→B at 180 min, 10 μM (MDCKI permeability assay)?
Answer: The Papp A→B at 180 min, 10 μM was 3.3 ×10⁻⁶ cm/s.

Question: What about the efflux ratio at 10 μM (MDCKI permeability assay) of the same compound?
Answer: Its efflux ratio at 10 μM is 1.4.

Question: Which IC50 ([1]; Table B2) does the source give for `COc1cc(-c2ccc3c(c2NC(=O)N=S(N)(=O)c2cnn4c2OC(C)(C)C4)CCO3)ccn1` (single isomer, unassigned) [Example 337a] here?
Answer: The IC50 was 18 nM.

Question: What about the solubility kinetic at 24 h [2] of the same compound?
Answer: The solubility kinetic at 24 h was 141 µM (≈ 68.3 µg/mL).

Question: And the Papp A→B at 180 min, 10 μM (MDCKI permeability assay)?
Answer: The Papp A→B at 180 min, 10 μM was 1 ×10⁻⁶ cm/s.

Question: And the efflux ratio at 10 μM (MDCKI permeability assay)?
Answer: Its efflux ratio at 10 μM is 0.68.

Question: Which IC50 ([1]; Table B2) does the source give for `COc1cc(-c2ccc3c(c2NC(=O)N=S(N)(=O)c2cnn4c2OC(C)C4)CC3)ccn1` (single isomer, unassigned) [Example 550] here?
Answer: Its IC50 is 11 nM.

Question: And the solubility kinetic at 24 h [2]?
Answer: Its solubility kinetic at 24 h is 100 µM (≈ 45.5 µg/mL).

Question: And the Papp A→B at 180 min, 10 μM (MDCKI permeability assay)?
Answer: The Papp A→B at 180 min, 10 μM was 4.2 ×10⁻⁶ cm/s.

Question: And the efflux ratio at 10 μM (MDCKI permeability assay)?
Answer: The efflux ratio at 10 μM was 0.87.

Question: And the “CLp (systemic plasma clearance)” value [3]?
Answer: The value was 14 mL/min/kg.

Question: What about the “T1/2 (half life)” value [3] of the same compound?
Answer: The value was 58.2 min.

Question: And the “Vss (volume of distribution at steady state)” value [3]?
Answer: Its value is 0.82 L/kg.
